The text below walks through data of patent publication US20110076278A1 (priority 2005, published 2011).

Where two headings read alike, the source gives them in different places.

One series has as its system HIF-1α. The series can be described thus: HIF-1α Western blot in ARPE-19 cells under hypoxia. Format: cell-based, human. The method, then: Samples were fractionated on 3-8% Tris-Acetate gel (Invitrogen NUPAGE system) by sodium dodecyl sulfate (SDS)-polyacrylamide gel electropherosis and transferred onto nitrocellulose membrane. […] Anti-Beta-actin monoclonal antibody (Abcam, ab6276-100) was used at a 1:5000 dilution with a 30-minute incubation at room temperature.
A general note: Immunoblotting shows a protein as a band on a membrane.

The conditions of series [1]: cited from earlier work; for max. plasma concentration: in vivo.
The next series deals with TIMP-1. The experiment in a line: TIMP-1 ELISA on supernatants of ARPE-19 cells under hypoxia. Format: cell-based. Particulars: Homo sapiens, ARPE-19, hypoxia 24 hours, read-out: IC50 TIMP-1 expression. As to the method:
(§1) ARPE-19 was cultured in DMEM/F-12 medium supplemented with 10% heat-inactivated FBS, penicillin (100 U/mL), and streptomycin (100 ug/mL). Cells were grown in incubator with humidified atmosphere containing 5% CO2 at 37° C. To induce hypoxia conditions, cells are placed in a Billups-Rothenberg modular incubator chamber and flushed with artificial atmosphere gas mixture (5% carbon dioxide, 1% oxygen, and balance nitrogen). The hypoxia chamber was then placed in a 37° C. incubator.
(§2) APRE-19 cells were plated in two 96-well plates at a confluence of 80% and cultured overnight. The next day, a series dilution of BNC4 (100, 50, 25, 12.5, 6.25, 3.13, 1.56, 0.78, 0 nM) was added into cultures. […] Supernatants were collected for ELISAs and cells were saved for MTS assay (MTS assay readouts was used in normalizing cell numbers). […] Affection curves (BNC4 on secretion of angiogenesis proteins) and their IC50s were generated by plotting the average normalized absorbance (450 nm minus 540nm) for each treatment on Y axis versus the corresponding BNC4 concentrations on X axis using software XLfit 4.1.
(§3) ELISAs were then performed on the APRE-19 cells treated with BNC4 and incubated under normal or hypoxia conditions as described above. […] Supernatants were collected for ELISAs and cells were saved for MTS assay (MTS assay readouts was used in normalizing cell numbers). […]

Series [2] is described as follows: Serum concentration in the choroidal neovascularization experiment. In kind it is in vivo. Particulars: choroidal neovascularization model, Alzet osmotic pump.
A further series relates to angiogenin. The experiment in a line: Angiogenin ELISA on supernatants of ARPE-19 cells under hypoxia. In kind it is cell-based. Particulars: Homo sapiens, ARPE-19, hypoxia 24 hours, read-out: IC50 angiogenin expression. As to the method:
as §1, §2, §3

The test system of another series is cancer cell lines. The series can be described thus: Proliferation of cancer cell lines. Format: cell-based.
For another series, the system named is VEGF. The series can be described thus: VEGF ELISA on supernatants of ARPE-19 cells under hypoxia. In kind it is cell-based. Particulars: Homo sapiens, ARPE-19, hypoxia 24 hours, read-out: IC50 VEGF expression. As to the method: as §1, §2, §3
Series [3] has as its system choroidal neovascularization. The series can be described thus: Choroidal neovascularization model with Alzet osmotic pump. In kind it is in vivo. Particulars: versus vector (vehicle) alone.

As usually defined, the IC50 is the concentration at which inhibition is half-maximal.

Consider `C[C@@H]1O[C@@H](O[C@@H]2C=C3CC[C@@H]4[C@H](CC[C@]5(C)[C@@H](c6ccc(=O)oc6)CC[C@]45O)[C@@]3(C)CC2)[C@H](O)[C@H](O)[C@H]1O` [BNC4, proscillaridin], for which, in the series on HIF-1α (ARPE-19 cells, hypoxia, western blot (FIG. 1)), the “inhibition of hypoxia-mediated HIF-1α induction” value is reported as “inhibit hypoxia-mediated HIF-1α induction”. Also, the “potency relative to BNC1 in inhibiting HIF-1α expression” value in the series with HIF-1α (human retinal pigment epithelial cells) was “about 10 times”. In series [1] (human, according to the literature), the plasma half-life entry is given as “about 40 hours”. In series [1], the max. plasma concentration result was “about 0.1 μg/mL”. Moreover, the 50% inhibitory concentration (IC50) in the series with TIMP-1 came out at 12.9 nM; in the series on angiogenin, 4.5 nM; in the series on VEGF, 32.5 nM. This compound came in with a serum concentration in series [2] of 60 ng/mL. In addition, the “decrease of the concentration effective for inhibiting proliferation of cancer cells by combination” value in the series on cancer cell lines is 5 fold. Moreover, the “area of choroidal neovascularization” value in series [3] is recorded as “reduced the area of choroidal neovascularization”.
For `C[C@@H]1O[C@@H](O[C@H]2C[C@@H](O)[C@]3(CO)[C@H]4[C@H](O)C[C@]5(C)[C@@H](C6=CC(=O)OC6)CC[C@]5(O)[C@@H]4CC[C@]3(O)C2)[C@H](O)[C@H](O)[C@H]1O` [BNC1, ouabain], in series [1], the max. plasma concentration result was “about 0.03 μg/mL”. The serum concentration in series [2] amounted to 20 ng/mL. The “decrease of the concentration effective for inhibiting proliferation of cancer cells by combination” value in the series with cancer cell lines (combination with steroid signal modulator (Casodex)) stood at 5 fold. In addition, the “area of choroidal neovascularization” value in series [3] is “reduced the area of choroidal neovascularization”.
